The record followed here is patent publication US20100029682A1, “NOVEL CHROMENE AND THIOCHROMENE CARBOXAMIDE DERIVATIVES, METHODS FOR PREPARING SAME AND THERAPEUTIC APPLICATIONS OF SAME” (priority 2006, published 2010).

The target of data set [1] is α1-adrenergic receptor. The data set can be described thus: inhibition of prazocine[3H] binding in rat brain tissue. As to the method:
(§1) The activity of derivatives of formula 1 as DRD3 ligands, modulators of the activity of DRD3 according to the invention, was evaluated on cells expressing human recombinant DRD3. […] These same compounds show an apparent affinity for the dopamine D2 receptor that is 100 to 500 times weaker. These same compounds have an affinity for the α1 adrenergic receptor that is 20 to 500 times weaker than that for the D3 receptor. The compounds of formula 1 are either antagonists (intrinsic activity<0.10), partial agonists (0.2<intrinsic activity<0.6) or full agonists (intrinsic activity>0.8). The biological results relative to certain compounds of formula 1 are presented in table 2 at the end of the description.

In data set [2] the target is T1, dopamine D2 receptor (Homo sapiens, UniProt P14416).
T1 construct: expressed in transfected cells
T1 sequence (P14416 whole entry, species assumed): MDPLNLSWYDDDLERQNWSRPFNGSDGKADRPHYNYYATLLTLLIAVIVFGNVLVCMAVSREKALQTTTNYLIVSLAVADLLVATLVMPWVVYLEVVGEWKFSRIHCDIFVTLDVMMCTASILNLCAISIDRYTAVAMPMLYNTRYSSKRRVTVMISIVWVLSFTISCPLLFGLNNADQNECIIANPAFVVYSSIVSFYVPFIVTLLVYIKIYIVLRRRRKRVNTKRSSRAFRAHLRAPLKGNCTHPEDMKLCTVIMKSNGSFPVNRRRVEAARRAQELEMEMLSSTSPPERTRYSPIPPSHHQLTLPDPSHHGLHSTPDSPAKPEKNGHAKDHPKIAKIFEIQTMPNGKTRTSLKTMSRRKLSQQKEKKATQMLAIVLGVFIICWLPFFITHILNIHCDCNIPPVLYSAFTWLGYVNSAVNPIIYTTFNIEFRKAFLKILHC
As to the kind of experiment: inhibition of spiperone[3H] binding in CHO cells, dopamine D2 receptor. To be noted: read-out: pKi D2 (converted). As for the experimental part:
as §1

Data set [3] deals with T2, dopamine D3 receptor (Homo sapiens, UniProt P35462).
T2 construct: expressed in transfected cells
T2 sequence (P35462 whole entry): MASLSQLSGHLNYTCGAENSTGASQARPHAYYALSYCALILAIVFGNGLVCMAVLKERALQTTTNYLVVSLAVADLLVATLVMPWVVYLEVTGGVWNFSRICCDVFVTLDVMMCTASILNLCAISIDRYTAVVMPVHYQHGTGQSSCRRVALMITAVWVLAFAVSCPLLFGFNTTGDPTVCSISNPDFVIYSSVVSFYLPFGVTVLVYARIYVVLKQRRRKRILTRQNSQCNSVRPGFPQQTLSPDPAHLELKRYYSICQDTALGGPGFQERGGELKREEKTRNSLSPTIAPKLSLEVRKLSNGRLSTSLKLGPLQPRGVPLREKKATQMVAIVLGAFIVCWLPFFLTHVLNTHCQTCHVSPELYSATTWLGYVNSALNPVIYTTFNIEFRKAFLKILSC
As to the kind of experiment: inhibition of spiperone[3H] binding in CHO cells, dopamine D3 receptor. To be noted: read-out: pKi D3 (converted). As to the method:
as §1

Data set [4] deals with T3, human recombinant DRD3 (Homo sapiens, UniProt P35462).
T3 construct: expressed in transfected cells
T3 sequence (P35462 whole entry): as above
The data set can be described thus: intrinsic activity on cells expressing human recombinant DRD3. As to conditions: antagonists <0.10, partial agonists 0.2-0.6, full agonists >0.8. The class given is cell-based.
Description: As used above, the term “D3 receptor partial agonist” denotes a compound that forms a complex with DRD3 and that acts as a combined agonist-antagonist, i.e., it induces a physiological response whose intensity is less than that of the natural mediator, dopamine. In vitro, in a cell expressing DRD3, a DRD3 partial agonist produced an active response whose maximum intensity was lower than that produced by dopamine or a by a full agonist, for example quinpirole[(4aR-trans)-4,4a,5,6,7,8,8a,9 octahydro-5-propyl-1H (or 2H)-pyrazolo(3,4-g)quinoline]. A DRD3 partial agonist can also partially prevent the response produced by dopamine or by its full agonists. In vivo, a DRD3 partial agonist produces dopaminergic responses, particularly when dopamine levels are lowered, as is the case with rats with lesions caused by 6-hydroxydopamine or monkeys injected with 1 methyl-4-phenyl-1,2,3,6-tetrahydropyridine (MPTP). Moreover, a DRD3 partial agonist can act as an antagonist in vivo, particularly when DRD3 is subject to sustained dopamine stimulation.
as §1

Where a name gives a salt, the structure may show the parent alone.

In general, melting point refers to the temperature of the solid-liquid transition. As for `CCOC(=O)c1ccc(N2CCN(CCCCNC(=O)C3=Cc4ccccc4OC3)CC2)cc1` (as salt: hydrochloride) [Example 22, 4-(4-{4-[(2H-Chromene-3-carbonyl)-amino]-butyl}-piperazin-1-yl)-benzoic acid ethyl ester hydrochloride], the melting point was determined as 237 °C.

Take `COc1cc(OC)cc(N2CCN(CCCCNC(=O)C3=Cc4ccccc4OC3)CC2)c1` (as salt: hydrochloride) [Example 23, 2H-Chromene 3 carboxylic acid {4-[4-(3,5-dimethoxyphenyl)piperazin-1-yl]-butyl}-amide hydrochloride]: the melting point is 213 °C.

Compound `O=C(NCCCCN1CCN(c2cccc(Cl)c2Cl)CC1)C1=Cc2cc(Cl)ccc2OC1` (as salt: hydrochloride) [Example 28, 6-Chloro-2H-Chromene-3-carboxylic acid {4-[4-(2,3-dichlorophenyl)-piperazin-1-yl]-butyl}-amide] gave a melting point of 214 °C.

The compound `COc1ccc(Br)c2c1OCC(C(=O)NCCCCN1CCN(c3ccccc3F)CC1)=C2` (as salt: hydrochloride) [Example 49, 5-Bromo-8-methoxy-2H-chromene-3-carboxylic acid {4-[4 (2-fluorophenyl)-piperazin-1-yl]-butyl}-amide hydrochloride] gave a melting point of 157 °C.

In the case of `O=C(NCCCCN1CCN(c2cccc(Cl)c2Cl)CC1)C1=Cc2ccccc2OC1` [Example 2, 2H-Chromene-3-carboxylic acid {4-[4-(2,3-dichlorophenyl)-piperazin-1-yl]-butyl}-amide], in data set [1], the “pKi α1” value is listed as 7.29. Further, the Ki in data set [2] was 123 nM; in data set [3], 0.813 nM.

Turning to `O=C(NCCCCN1CCN(c2cccc(C(F)(F)F)c2)CC1)C1=Cc2ccccc2OC1` [Example 16, 2H-Chromene-3-carboxylic acid {4-[4-(3-trifluoromethylphenyl)-piperazin-1-yl]-butyl}-amide], the “pKi α1” value in data set [1] came to 7.55. Further, the Ki in data set [2] is 447 nM; in data set [3], 2.69 nM.

In the case of `N#Cc1cccc(N2CCN(CCCCNC(=O)C3=Cc4ccccc4SC3)CC2)c1` [Example 35, 2H-Thiochromene-3-carboxylic acid {4-[4-(3-cyanophenyl)-piperazin-1-yl]-butyl}-amide], in data set [1], the “pKi α1” value is listed as 7.32. Moreover, the Intrinsic activity in data set [4] is on record as 0.18. Also, the Ki in data set [2] was 3160 nM; in data set [3], 2.4 nM.

Consider `O=C(NCCCCN1CCN(c2cccc(O)c2)CC1)C1=Cc2ccccc2SC1` [Example 41, 2H-Thiochromene-3-carboxylic acid {4-[4-(3-hydroxyphenyl)-piperazin-1-yl]-butyl}-amide], for which the “pKi α1” value in data set [1] was 7.08. In addition, in data set [4], the Intrinsic activity worked out at 0.64. Also, the Ki in data set [2] was 3800 nM; in data set [3], 0.661 nM.

As for `COc1ccc2c(c1)C=C(C(=O)NCCCCN1CCN(c3ccccc3OC)CC1)CO2` [Example 54, 6-Methoxy-2H-chromene-3-carboxylic acid {4-[4-(2-methoxyphenyl)piperazin-1-yl]-butyl}-amide], in data set [1], the “pKi α1” value is listed as 8.05. Further, the Ki is 417 nM in data set [2] and 0.537 nM in data set [3].

As to `COc1ccc2c(c1)C=C(C(=O)NCCCCN1CCN(c3cccc(Cl)c3Cl)CC1)CO2` [Example 55, 6-Methoxy-2H-chromene-3-carboxylic acid {4-[4-(2,3-dichlorophenyl)-piperazin-1-yl]-butyl}-amide], the Ki in data set [2] is 251 nM; in data set [3] it was 0.794 nM.

With `CS(=O)(=O)Nc1cccc(N2CCN(CCCCNC(=O)C3=Cc4cc(Cl)ccc4OC3)CC2)c1` [Example 89, 6-chloro-2H-chromene-3-carboxylic acid {4-[4-(3-mesylamino-phenyl}-piperazin-1-yl]-butyl}-amide], the “pKi α1” value in data set [1] stood at 6.78. Moreover, the Intrinsic activity in data set [4] was determined as 0. Moreover, the figures for the Ki in data set [2] and in data set [3] were 34.7 nM and 0.219 nM, respectively.

As for `O=C(NCCCCN1CCN(c2cccc3[nH]ccc23)CC1)C1=Cc2ccccc2OC1` [Example 102, 2H-chromene-3-carboxylic acid {4-[4-(1H-indol-4-yl)-piperazin-1-yl]-butyl}-amide], the “pKi α1” value in data set [1] worked out at 8.05. Further, the Intrinsic activity in data set [4] is reported as 0.59. Moreover, the Ki in data set [2] was 93.3 nM; in data set [3] it was 0.219 nM.

On to `O=C(NCCCCN1CCN(c2cccc3c2OCCO3)CC1)C1=Cc2ccccc2OC1` [Example 105, 2H-chromene-3-carboxylic acid {4-[4-(2,3-dihydro-benzo[1,4]dioxin-5-yl)-piperazin-1-yl]-butyl}-amide], for which the “pKi α1” value in data set [1] is given as 7.81. The Ki is 132 nM in data set [2] and 0.603 nM in data set [3].

In the case of `O=C(NCCCCN1CCN(c2cccc3[nH]c(=O)oc23)CC1)C1=Cc2ccccc2OC1` [Example 110, 2H-chromene-3-carboxylic acid {4-[4-(2-oxo-2,3-dihydro-benzoxazol-7-yl)-piperazin-1-yl]-butyl}-amide], the “pKi α1” value in data set [1] was 8.44. Also, the Intrinsic activity in data set [4] is 0.81. Moreover, the Ki in data set [2] was 7.59 nM; in data set [3] it was 0.0676 nM.

Regarding `O=C(NCCCCN1CCN(c2cccc3c2OCC3)CC1)C1=Cc2ccccc2OC1` [Example 111, 2H-chromene-3-carboxylic acid {4-[4-(2,3-dihydro-benzofuran-7-yl)-piperazin-1-yl]-butyl} amide], the “pKi α1” value in data set [1] is recorded as 7.84. Moreover, in data set [4], the Intrinsic activity is 0.26. Further, the Ki in data set [2] was 141 nM; in data set [3], 0.676 nM.
